According to ChEMBL document CHEMBL1201862, “PubChem BioAssay data set” (2004):
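A five-concentration, 48-hour dose response in 96-well plates underlies each endpoint, interpolated linearly between surrounding concentrations. GI50 is the concentration that inhibits growth by half.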 Calls of active or inactive are those of the source. Cut-off read from the data, not from the text of the source: active = GI50 up to about 1.1 µM and inactive = higher.

Assays:
Assay in all cases: NCI tumour cell line growth inhibition, 48 h
SK-OV-3 = test system: SK-OV-3
PC-3 = test system: PC-3
UO-31 = test system: UO-31
HOP-92 = test system: HOP-92
OVCAR-8 = test system: OVCAR-8
NCI-H522 = test system: NCI-H522
HCT-15 = test system: HCT-15
SK-MEL-28 = test system: SK-MEL-28
HL-60 = test system: HL-60
DU-145 = test system: DU-145
SR = test system: SR
NCI-H226 = test system: NCI-H226
SF-295 = test system: SF-295
RPMI-8226 = test system: RPMI-8226
SF-539 = test system: SF-539
786-0 = test system: 786-0
OVCAR-4 = test system: OVCAR-4
SK-MEL-5 = test system: SK-MEL-5
LOX IMVI = test system: LOX IMVI
CAKI-1 = test system: CAKI-1

Row | Structure (SMILES) | GI50 (SK-OV-3) | GI50 (PC-3) | GI50 (UO-31) | GI50 (HOP-92) | GI50 (OVCAR-8) | GI50 (NCI-H522) | GI50 (HCT-15) [µM] | GI50 (SK-MEL-28) | GI50 (HL-60) | GI50 (DU-145) | GI50 (SR) | GI50 (NCI-H226) | GI50 (SF-295) | GI50 (RPMI-8226) | GI50 (SF-539) | GI50 (786-0) | GI50 (OVCAR-4) | GI50 (SK-MEL-5) | GI50 (LOX IMVI) | GI50 (CAKI-1)
1 | O=C1N/N=C\c2ccc(cc2)OCc2cccc(n2)COc2ccc(cc2)/C=N\NC1=O | > 25 µM (inactive) | > 25 µM (inactive) | > 25 µM (inactive) | > 25 µM (inactive) | > 25 µM (inactive) | > 25 µM (inactive) | > 25 | > 25 µM (inactive) | > 25 µM (inactive) | > 25 µM (inactive) | > 25 µM (inactive) | > 25 µM (inactive) | > 25 µM (inactive) | > 25 µM (inactive) | > 25 µM (inactive) | > 25 µM (inactive) | > 25 µM (inactive) |  |  | 
2 | COc1cc2c(c(OC)c1OC)-c1ccc(SC)cc1C(O)CC2 (stereo not drawn) |  | < 0.01 µM (active) |  | > 100 µM (inactive) |  | < 0.01 µM (active) | < 0.01 | 55.6 µM (inactive) | < 0.01 µM (active) | < 0.01 µM (active) | < 0.01 µM (active) |  | < 0.01 µM (active) | < 0.01 µM (active) | < 0.01 µM (active) | < 0.01 µM (active) | 1.94 µM (inactive) | < 0.01 µM (active) | < 0.01 µM (active) | 0.071 µM (active)
3 | O=C(CSCC(=O)N/N=C\c1ccc(-c2ccccc2)cc1)N/N=C\c1ccc(-c2ccccc2)cc1 | 18.9 µM (inactive) | 30.4 µM (inactive) | 28.5 µM (inactive) | 45.6 µM (inactive) | 24.6 µM (inactive) | 13.5 µM (inactive) | 26.1 | 29.6 µM (inactive) |  | 33 µM (inactive) | 6.58 µM (inactive) | 28.8 µM (inactive) | 18.2 µM (inactive) |  | 19.4 µM (inactive) | 33.2 µM (inactive) | 20.7 µM (inactive) | 39.9 µM (inactive) | 16.3 µM (inactive) | 40.5 µM (inactive)
4 | CSCCCNC(=O)[C@H](CSC)NC(=O)c1csc(CCNC(=O)[C@@H](NSc2ccccc2[N+](=O)[O-])C(C)O)n1 (stereo partly drawn) | > 100 µM (inactive) | > 100 µM (inactive) | > 100 µM (inactive) | > 100 µM (inactive) | > 100 µM (inactive) | > 100 µM (inactive) | > 100 | > 100 µM (inactive) | > 100 µM (inactive) | > 100 µM (inactive) | > 100 µM (inactive) | > 100 µM (inactive) | > 100 µM (inactive) |  | > 100 µM (inactive) | > 100 µM (inactive) | > 100 µM (inactive) | > 100 µM (inactive) | > 100 µM (inactive) | > 100 µM (inactive)
5 | CC(C)(C)OC(=O)NC(Cc1ccc(OCc2ccccc2)cn1)C(=O)N1CCSCC1 (stereo not drawn) | 86.3 µM (inactive) | 31.4 µM (inactive) | 50.6 µM (inactive) | 47.4 µM (inactive) | 40.1 µM (inactive) | 32.9 µM (inactive) | 46.7 | 78.7 µM (inactive) | 16.4 µM (inactive) | 51.9 µM (inactive) | 27 µM (inactive) |  | 37.2 µM (inactive) | 21.7 µM (inactive) | 49 µM (inactive) | 57.9 µM (inactive) |  | 16.3 µM (inactive) | 28.3 µM (inactive) | 73.3 µM (inactive)
6 | CC1=C/C(=N\NS(=O)(=O)c2ccc([N+](=O)[O-])cc2)CC(C)(C)C1 | > 100 µM (inactive) | > 100 µM (inactive) | 80.7 µM (inactive) | 10.4 µM (inactive) | > 100 µM (inactive) | 86.5 µM (inactive) | 49.8 | > 100 µM (inactive) | > 100 µM (inactive) | > 100 µM (inactive) | 79.6 µM (inactive) |  | > 100 µM (inactive) | > 100 µM (inactive) | > 100 µM (inactive) | > 100 µM (inactive) |  | 66.1 µM (inactive) | > 100 µM (inactive) | > 100 µM (inactive)
7 | C=CC(Cl)(CBr)CCC(Br)=C(C)C (stereo not drawn) |  | 21.3 µM (inactive) | 18.8 µM (inactive) | 16.9 µM (inactive) | 24.9 µM (inactive) | 16.9 µM (inactive) | 10.4 | 20 µM (inactive) |  | 33.3 µM (inactive) | 21.7 µM (inactive) | 44.8 µM (inactive) | 35.9 µM (inactive) | 21.1 µM (inactive) | 21.4 µM (inactive) | 25.6 µM (inactive) | 20.8 µM (inactive) | 17.1 µM (inactive) | 15.7 µM (inactive) | 9.31 µM (inactive)
8 | C#CCn1ncc2c(SCc3ccccc3)ncnc21 | > 100 µM (inactive) | 86.1 µM (inactive) | 89.7 µM (inactive) | > 100 µM (inactive) | > 100 µM (inactive) | 73.1 µM (inactive) | > 100 | > 100 µM (inactive) |  | > 100 µM (inactive) | 18.8 µM (inactive) | > 100 µM (inactive) | 53.5 µM (inactive) | > 100 µM (inactive) | > 100 µM (inactive) | > 100 µM (inactive) | > 100 µM (inactive) | 36.1 µM (inactive) | > 100 µM (inactive) | 57.8 µM (inactive)
